According to ChEMBL document CHEMBL1126253, “Energy aspects of oil/water partition leading to the novel hydrophobic parameters for the analysis of quantitative structure-activity relationships” (J Med Chem, 1992):

Key:
[1] = log (1/C') was determined; format: ADME
[2] = Partition coefficient (logD2.0); format: physicochemical; conditions: octanol/water
[3] = species on record: Rattus norvegicus; experiment: Concentration of the drug in the kidney of rat; format: ADME, organism-based; conditions: in vivo
[4] = species on record: Rattus norvegicus; experiment: Concentration of the drug in the liver of rat; format: ADME, organism-based; conditions: in vivo
[5] = test system: Culicidae; experiment: Concentration required to kill 50% of the mosquito larva in 24 hr.; format: organism-based; conditions: in vivo

| Structure (SMILES) | Log 1/C [1] | logD ([2]; pH 2, read-out: logD) | Log M [3] | Log M [4] | other results |
| --- | --- | --- | --- | --- | --- |
| O=C(O)c1ccccc1F | 1.82 | 1.52 |  |  |  |
| CCOc1ccc(C(=O)O)cc1 |  |  | 0.89 | 0.92 |  |
| CN(C)c1cccc(C(=O)O)c1 |  | 0.22 | 0.45 | 0.2 |  |
| CCCCc1ccc(C(=O)O)cc1 |  | 3.63 |  |  |  |
| O=C(O)c1ccc(F)cc1 | 1.27 | 2.05 |  |  | Log LD50: -1.85 |
| O=C(O)c1ccc(O)cc1 [PARABEN] | -1.69 | 1.41 |  |  | Log LD50: -1.29 |
| O=C(O)c1ccccc1I | 1.19 | 2.45 |  |  |  |
| Cc1ccc(C(=O)O)cc1 [4-METHYLBENZOIC ACID] |  |  |  |  | logD [2]: 2.26 |
| Nc1ccccc1C(=O)O [ANTHRANILIC ACID] |  | 0.51 |  |  |  |
| O=C(O)c1ccccc1[N+](=O)[O-] | 1.54 | 1.2 |  |  |  |
| N#Cc1cccc(C(=O)O)c1 |  | 1.65 | 0.95 | 0.69 |  |
| O=C(O)c1cccc2ccccc12 [NAPHTHOIC ACID] |  | 2.98 |  |  | Log LD50: -1.46 |
| NCc1ccc(C(=O)O)cc1 [AMINOMETHYLBENZOIC ACID] |  | 1.03 |  |  |  |
| CN(C)c1ccc(C(=O)O)cc1 |  | 1.28 | 0.08 | 0.17 |  |
| Nc1cccc(C(=O)O)c1 [3-AMINOBENZOIC ACID] | -1 | -0.79 | 1.45 | 0.76 |  |
| O=C(O)c1cccc([N+](=O)[O-])c1 | 0.22 |  | 1.23 | 0.73 | logD [2]: 1.69 |
| Nc1ccc(C(=O)O)cc1 | -1.67 | 0.76 | 0.79 | 0.59 | Log LD50: -1.54 |
| O=C(O)c1ccc(Cl)c(Cl)c1 | 2.47 |  |  |  | logD [2]: 3.25; Log LD50: -2.28 |
| CC(C)c1ccc(C(=O)O)cc1 |  | 3.28 |  |  |  |
| O=C(O)c1ccc2ccccc2c1 [BETA-NAPHTOIC ACID] |  | 2.78 |  |  | Log LD50: -1.92 |
| O=Cc1ccc(C(=O)O)cc1 |  | 1.76 |  |  |  |
| CC(=O)Nc1cccc(C(=O)O)c1 |  | 1.32 | -0.1 | -0.29 |  |
| O=C(O)c1cc(Cl)ccc1Cl | 1.63 | 2.82 |  |  | Log LD50: -1.77 |
| CCc1ccc(C(=O)O)cc1 |  | 2.89 |  |  |  |

| Structure (SMILES) | Log 1/C [1] | logD ([2]; pH 2, read-out: logD) | Log M [3] | Log M [4] | other results |
| --- | --- | --- | --- | --- | --- |
| Cc1cccc(C(=O)O)c1 |  |  | 1.83 | 1.71 |  |
| O=C(O)c1cccc(Br)c1 | 1.71 |  |  |  | logD [2]: 2.86 |
| O=C(O)c1cccc(C(F)(F)F)c1 |  | 2.99 |  |  |  |
| O=C(O)c1ccc(C(F)(F)F)cc1 |  | 3.18 |  |  |  |
| Cc1ccccc1C(=O)O [TOLUIC ACID] |  | 2.27 |  |  |  |
| N#Cc1ccc(C(=O)O)cc1 |  | 1.63 | 1.57 | 0.62 |  |
| O=C(O)c1ccc(Br)cc1 | 1.19 |  |  |  | logD [2]: 2.81; Log LD50: -2.03 |
| COc1ccc(C(=O)O)cc1 [p-ANISIC ACID] | -0.66 | 1.95 | 1 | 1.09 | Log LD50: -1.6 |
| O=C(O)c1ccc(I)cc1 | 0.99 |  |  |  | logD [2]: 3.05; Log LD50: -2.31 |
| O=C(O)c1ccc([N+](=O)[O-])cc1 [4-NITROBENZOIC ACID] |  |  | 1.02 | 0.79 | logD [2]: 1.84; Log LD50: -1.52 |
| O=C(O)c1c(Cl)cccc1Cl |  | 1.8 |  |  | Log LD50: -1.22 |
| O=C(O)c1ccccc1Cl | 2.15 |  |  |  | logD [2]: 2.02; Log LD50 [5]: -1.62 |
| CCCc1ccc(C(=O)O)cc1 |  | 3.42 |  |  |  |
| O=C(O)c1cccc(I)c1 | 1.29 |  |  |  | logD [2]: 3.13 |
| O=C(O)c1cccc(O)c1 [3-HYDROXYBENZOIC ACID] | -0.99 |  |  |  | logD [2]: 1.55 |
| CC(=O)Nc1ccc(C(=O)O)cc1 [ACEDOBEN] |  | 1.27 | -0.64 | -0.08 |  |
| O=C(O)c1cccc(Cl)c1 | 2.16 |  | 1.79 | 1.57 | logD [2]: 2.72; Log LD50: -2 |
| O=C(O)c1cc(I)cc(I)c1I [2,3,5-TRIIODOBENZOIC ACID] |  | 3.45 |  |  |  |
| O=C(O)c1ccccc1Br | 1.9 | 2.14 |  |  |  |
| [N-]=[N+]=Nc1ccc(C(=O)O)cc1 |  | 2.54 |  |  |  |
| O=C(O)c1ccccc1 [BENZOIC ACID] |  |  | 1.44 | 1.28 |  |
| NS(=O)(=O)c1ccc(C(=O)O)cc1 [CARZENIDE] |  | 0.55 |  |  |  |
| COc1cccc(C(=O)O)c1 | 0.29 | 1.98 | 1.35 | 1.34 |  |
| CCCOc1ccc(C(=O)O)cc1 |  | 3.09 |  |  |  |
